Results published in patent publication US20230310392A1, “COMPOSITIONS AND METHODS FOR THE TREATMENT OF EYE CONDITIONS” (Lenz Therapeutics, Inc., priority 2021, published 2023).
Where “and” joins values, the source holds several entries; their conditions need not be identical. Identical values can stand only once.

How the values were obtained:
[1] = system: subjects; experiment: Modulation of aceclidine concentration in a preferred embodiment: stinging, redness, comfort, depth of focus (Example 2); type: in vivo, human
Description: Preferred embodiment: • Aceclidine 1.35% - 1.55% w/v; • Polyoxyl 40 stearate 5.5% w/v; • NaCl 0.037% w/v; • a viscosity agent, preferably CMC 0.80% w/v or an amount of Carbopol® 934 or 940 sufficient to achieve a viscosity of from about 5 to about 35 cps upon topical instillation, such as Carbopol® 940 at a concentration from about 0.09% to about 1.0% w/v; • BAK 0.015% w/v; and • a phosphate, citrate, citrophosphate, or acetate buffer from about 3 to about 10 mM, wherein the pH is from about 4.75 to about 6.0.
For 1.35% w/v aceclidine - • Stinging on topical instillation 0.25 / 4.0 (lasting about 2-5 seconds); • Induced redness at 10 minutes: 1.0 to 1.5/4.0; • Induced redness at 30 minutes: 0.0 to 0.25 / 4.0; • Comfort: very high. • Wetting: very high, the eye maintaining sensation of improved wetting for most of a 24-hour period after a single topical instillation. • Depth of Focus distance: excellent. • Depth of Focus near: excellent.
In testing the above formulations on several subjects, it was discovered that there is a slight range in clinical effect depending on the concentration of aceclidine, where 1.35% - 1.55% w/v aceclidine is preferred, but for which 1.35% w/v and 1.45% w/v confer the desired benefits on most subjects.

[2] = system: pupil; experiment: Duration of miosis of muscarinic agonist with brimonidine (description); type: in vivo, human
Description: It is further observed that concentration of brimonidine above 0.15% w/v causes significant trigger of the alpha 1 receptor leading to ischemia and rebound redness, which neutralizes the benefit of the prolonged duration at concentrations from about 0.07% to about 0.15% w/v brimonidine.
Another surprising discovery of the present invention, is that when the pH of a composition comprising a muscarinic agonist and brimonidine is below about 6.0 the duration of miosis is prolonged up to 14 hours.
In a still further embodiment lower pH is virtually found to cause the formulation to remain on the ocular surface longer, and therefore provide more sustained microvessel constriction and reduced egress of active ingredients.

[3] = system: emmetrope over the age of 45; experiment: Miotic agent with or without tropicamide and carrier: near and distance vision of an emmetrope over the age of 45 (FIG. 2); type: in vivo, human
Source text: Subject is an emmetrope over the age of 45 with a baseline near vision of 20.100 and baseline distance vision of 20.20. […] […] A proper drug carrier can also have a beneficial effect.

[4] = system: presbyopic subjects; experiment: Effect of aceclidine compositions on near and distance vision of presbyopic subjects aged 47 to 67 (Example 1); type: in vivo, human; settings: for Effect: duration of effect; for Post Gtt 15″ L Post Dist: left eye distance vision; for Post Gtt 15″ L Post Near: left eye near vision; for Post Gtt 15″ R Post Dist: right eye distance vision; for Post Gtt 15″ R Post Near: right eye near vision
Description: As aceclidine is an […], the clinical effectiveness may vary with different ratios. For the present studies a nearly exact 50:50 ratio of stereoisomers was measured as best determined by polarimetry.
After administration of the composition all subjects experienced an improvement in their near vision that lasted from 7 to 12 hours.

[5] = system: presbyopic subject; experiment: 1.75% aceclidine in saline, LogMAR visual acuity of a presbyopic subject (Example 13); type: in vivo, human
Description: A 1.75% aceclidine in saline solution was formulated. One drop was instilled into each eye of a presbyopic subject. The visual acuity of the subject was tested both before and after instillation using a LogMAR chart.

[6] = Stability of aceclidine in solution at 25° C. and 4° C. by HPLC (Example 6); type: physicochemical
Description: 20 samples of the above composition were divided evenly and stored at 25° C. and 4° C. Prior to storage, initial concentrations of aceclidine were measured using […] (“HPLC”). The amount of aceclidine in each solution was calculated by the area under the principal peak compared to a reference solution of aceclidine. Samples were then subject to storage for 3 months. Aceclidine measurements were taken at 1, 2 and 3 months.

[7] = system: presbyopic patient; experiment: Compositions containing little or no cycloplegic agent: reading vs baseline at 40 cm, duration, comfort, efficacy index (Example 7); type: in vivo, human; settings: 1.75% aceclidine, 2.5% mannitol, 0.01% tropicamide, 5% polysorbate 80, no viscosity agent
Source text: Aceclidine alone causes incidence migraine-like severe ciliary spasm (brow ache) and myopic blur. These effects are inversely correlated to age with subjects age 40 reporting the highest incidence and subject age 60+ reporting the lowest incidence. The addition of a cycloplegic agent reduces ciliary spasms and attendant brow ache, migranious headache, squeezing pressure around eyes or other symptoms of ciliary spasms. […] The addition of 2.5% w/v mannitol however does reduce the myopic effect of aceclidine. Increasing the aceclidine concentration overcomes this reduction in myopic effect seen with the addition of mannitol. […] Even more surprising, the concentration of the cycloplegic agent can be reduced or even eliminated in the presence of mannitol without an increase in ciliary spasm. […]
Further and unexpectedly, the addition of a nonionic surfactant increases both the quantitative measure of near vision improvement and the duration. […]
In brief, the score is calculated by multiplying the lines of improvement in near visual acuity by the number of hours the improvement lasts. […]

[8] = system: subject; settings: in vivo
Source text: The subject independently instilled 2 drops of the above compositions in each eye and the excess wiped from lids and lashes.
Stinging and Redness are based on a scale of 0 to 4 with 0 being none and 4 being the most severe.

[9] = system: patients; settings: cited from earlier work
[10] = aceclidine 1.1% composition with 0.125% w/v tropicamide
[11] = aceclidine 1.5% composition, object at 15 inches

With `CC(=O)OC1CN2CCC1CC2` (racemic) [aceclidine] the Comfort ([1]; 1.35% w/v aceclidine) was “very high”, the “Depth of Focus distance” value ([1]; 1.35% w/v aceclidine) was “excellent” and the “Depth of Focus near” value ([1]; 1.35% w/v aceclidine) was “excellent”. For the same compound, the Duration of stinging ([1]; 1.35% w/v aceclidine preferred embodiment) was 2 to 5 s, the “Stinging on topical instillation” value ([1]; 1.35% w/v aceclidine preferred embodiment, score out of 4.0) was 0.25 and the “Duration of miosis / efficacy for near depth of field improvement” value ([2]; aceclidine in a preferred vehicle, pupil sizes of 1.5 to 2.0 mm) was 6 to 7 h. The Duration of miosis ([2]; with the addition of brimonidine at 0.07% to 0.08%) was 10 to 12 h, the Distance vision ([3]; 1.55% w/v aceclidine in saline) was “without any effect on the baseline distance vision” and the Near vision ([3]; 1.55% w/v aceclidine in saline) was 20.40. For the same compound, the “Time period of near vision improvement” value ([3]; 1.55% w/v aceclidine in saline) was 6 h, the Near vision ([3]; aceclidine in carrier: 5.5% HPβCD, 0.75% CMC, 0.25% NaCl, 0.01% BAK) was less than 20.20 and the Near vision ([3]; aceclidine in the carrier with 0.042% w/v tropicamide) was 20.15. For the same compound, the “Effect” value [4, 10] was 12.00 h and 7.00 h, the “Post Gtt 15″ L Post Dist” value [4, 10] was 20.15 and 20.20 and the “Post Gtt 15″ L Post Near” value [4, 10] was 20.15 and 20.25. For the same compound, the “Post Gtt 15″ R Post Dist” value [4, 10] was 20.15 and 20.20, the “Post Gtt 15″ R Post Near” value [4, 10] was 20.20 and 20.25 and the “Effect” value ([4]; aceclidine 1.5% composition) was 9.00 h and 8.00 h. For the same compound, the “Post Gtt 15″ L Post Dist” value ([4]; aceclidine 1.5% composition) was 20.20 and 20.25 and 20.30, the “Post Gtt 15″ L Post Near” value [4, 11] was 20.15 and 20.20 and 20.30 and the “Post Gtt 15″ R Post Near” value [4, 11] was 20.15 and 20.25 and 20.20. The “Post Gtt 15″ R Post Dist” value ([4]; aceclidine 1.5% with 5.5% HPβCD, 0.75% CMC, 0.25% NaCl, 0.01% BAK) was 20.20 and 20.25, the “LogMAR score at 1-meter distance after instillation” value ([5]; 1.75% aceclidine in saline, one drop each eye) was -0.12 LogMAR and the “LogMAR score at 45 centimeters distance after instillation” value ([5]; 1.75% aceclidine in saline, one drop each eye, 0.50 prior to instillation) was 0.22 LogMAR. For the same compound, the “Time at which noticeable degradation in reading distance acuity began” value ([5]; post instillation) was 4 h, the “Time improved reading distance acuity was maintained” value ([5]; post instillation) was 3.5 h and the Aceclidine remaining ([6]; 4° C., 1 month) was 93%. The Aceclidine remaining ([6]; 4° C., 2 months) was 92%, the Aceclidine remaining ([6]; 4° C., 3 months) was 88% and the Aceclidine remaining ([6]; 4° C., Initial) was 100%. For the same compound, the Aceclidine remaining ([6]; 25° C., 1 month) was 92%, the Aceclidine remaining ([6]; 25° C., 2 months) was 75% and the Aceclidine remaining ([6]; 25° C., 3 months) was 50%. For the same compound, the Aceclidine remaining ([6]; 25° C., Initial) was 100% and the Near vision improvement [7] was “up to 3 lines of vision acuity”.
In the case of poloxamer 407, the “Redness 1 hr” value [8] is reported as 1 and the Stinging [8] is reported as 0.5.
With Polysorbate 80 the “Redness 1 hr” value [8] was 0.5 and the Stinging [8] was 0.25.
In the case of `Brc1c(NC2=NCCN2)ccc2nccnc12` [brimonidine], the “Treated subjects with tachyphylaxis of pupil modulation” value ([9]; brimonidine 0.20% w/v topically for night vision, within four weeks of use) is given as roughly 100% and the “Patients with rebound redness” value ([9]; brimonidine 0.20% w/v twice daily) is given as 25%.
